Experimental data taken from patent publication US9637491B2, “Pyrazolo[4,3-D]pyrimidines as kinase inhibitors” (Origenis GmbH, priority 2012, dated 2017).

Biological target: T1, SYK kinase (Homo sapiens, UniProt P43405)
T1 construct: purchased Invitrogen, Carlsbad
Experiment: SYK assay (OMNIA Kinase Assay, Invitrogen)
Assay type: biochemical
Details: SYK Activities; 1 mM ATP, 10 μM Omnia Peptide Substrate Tyr 7, 30° C.
Description: In the assay OMNIA® KINASE ASSAY by Invitrogen Corporation (Carlsbad) the effect of invention of a compound on the phosphorylation is determined by measurement of fluorescence intensity of a chelation-enhanced fluorophore called SOX. Upon phosphorylation of the peptide by the kinase of interest, Mg2+ is chelated to form a bridge between the SOX moiety and the phosphate group that is transferred to the specific tyrosine on the peptide. The fluorescence intensity is directly proportional to the amount of peptide phosphorylation.
To the wells of an 384 well small volume plate (Greiner, Frickenhausen) are added (i) the compound under test in 5% DMSO/distilled water (2 μl), (ii) 16 μl of the master mix containing ATP, DTT, Kinase Reaction Buffer, Omina Peptide Substrate Tyr 7 resulting in a final concentration of 1 mM ATP, 0.2 mM DTT and 10 μM Peptide Substrate. The Master Mix and the assay plate was incubated to reaction temperature before the measurement (30° C.). The reaction was started with addition of (iii) 2 μl 4 μg/ml SYK kinase (Invitrogen, Carlsbad). During measurement fluorescence intensitiy readings were collected using a TECAN M1000 at a wavelength of λex 360/λem 485 nm every 30 s for 30 minutes. The reaction velocity was plotted versus the inhibitor concentration to determine the IC50 using XLFit 5.0 (IDBS, Guildford) to fit to a sigmoidal dose response curve.

## CC(C)(C)N1CCN(c2ccc(Nc3nc(-c4ccco4)nc4cn[nH]c34)cc2)CC1 [Example 112, N-(4-(4-(tert-butyl)piperazin-1-yl)phenyl)-5-(furan-2-yl)-1H-pyrazolo[4,3-d]pyrimidin-7-amine]
  IC50: < 10 nM

## O=C1CCCc2ccc(Nc3nc(-c4ccco4)nc4cn[nH]c34)cc2N1 [Example 113, 8-((5-(furan-2-yl)-1H-pyrazolo[4,3-d]pyrimidin-7-yl)amino)-4,5-dihydro-1H-benzo[b]azepin-2(3H)-one]
  IC50: 10 to 100 nM

## CN1CCN(c2ccc(Nc3nc(-c4ccco4)nc4cn[nH]c34)cn2)CC1 [Example 114, 5-(furan-2-yl)-N-(6-(4-methylpiperazin-1-yl)pyridin-3-yl)-1H-pyrazolo[4,3-d]pyrimidin-7-amine]
  IC50: 100 to 1000 nM

## O=C1OCCN1c1ccc(Nc2nc(-c3ccco3)nc3cn[nH]c23)cc1 [Example 115, 3-(4-((5-(furan-2-yl)-1H-pyrazolo[4,3-d]pyrimidin-7-yl)amino)phenyl)oxazolidin-2-one]
  IC50: 10 to 100 nM

## c1coc(-c2nc(Nc3cnn(C4CCOCC4)c3)c3[nH]ncc3n2)c1 [Example 117, 5-(furan-2-yl)-N-(1-(tetrahydro-2H-pyran-4-yl)-1H-pyrazol-4-yl)-1H-pyrazolo[4,3-d]pyrimidin-7-amine]
  IC50: 10 to 100 nM

## c1nn(C2CCOCC2)cc1Nc1nc(C2CC2)nc2cn[nH]c12 [Example 118, 5-cyclopropyl-N-(1-(tetrahydro-2H-pyran-4-yl)-1H-pyrazol-4-yl)-1H-pyrazolo[4,3-d]pyrimidin-7-amine]
  IC50: 10 to 100 nM

## c1nn(C2CCOCC2)cc1Nc1nc(C2CCC2)nc2cn[nH]c12 [Example 119, 5-cyclobutyl-N-(1-(tetrahydro-2H-pyran-4-yl)-1H-pyrazol-4-yl)-1H-pyrazolo[4,3-d]pyrimidin-7-amine]
  IC50: 10 to 100 nM

## c1cc(N2CCOCC2)ccc1Nc1nc(C2CCC2)nc2cn[nH]c12 [Example 120, 5-cyclobutyl-N-(4-morpholinophenyl)-1H-pyrazolo[4,3-d]pyrimidin-7-amine]
  IC50: < 10 nM

## Cn1cc(-c2nc(Nc3ccc(N4CCOCC4)cc3)c3[nH]ncc3n2)cn1 [Example 121, 5-(1-methyl-1H-pyrazol-4-yl)-N-(4-morpholinophenyl)-1H-pyrazolo[4,3-d]pyrimidin-7-amine]
  IC50: 10 to 100 nM

## Cn1cc(-c2nc(Nc3cnn(C4CCOCC4)c3)c3[nH]ncc3n2)cn1 [Example 122, 5-(1-methyl-1H-pyrazol-4-yl)-N-(1-(tetrahydro-2H-pyran-4-yl)-1H-pyrazol-4-yl)-1H-pyrazolo[4,3-d]pyrimidin-7-amine]
  IC50: 10 to 100 nM

## c1cncc(-c2nc(Nc3ccc(N4CCOCC4)nc3)c3[nH]ncc3n2)c1 [Example 126, N-(6-morpholinopyridin-3-yl)-5-(pyridin-3-yl)-1H-pyrazolo[4,3-d]pyrimidin-7-amine]
  IC50: 100 to 1000 nM

## c1nc(-c2nc(Nc3cnn(C4CCOCC4)c3)c3[nH]ncc3n2)co1 [Example 127, 5-(oxazol-4-yl)-N-(1-(tetrahydro-2H-pyran-4-yl)-1H-pyrazol-4-yl)-1H-pyrazolo[4,3-d]pyrimidin-7-amine]
  IC50: 100 to 1000 nM

## COCCn1cc(Nc2nc(-c3cocn3)nc3cn[nH]c23)cn1 [Example 128, N-(1-(2-methoxyethyl)-1H-pyrazol-4-yl)-5-(oxazol-4-yl)-1H-pyrazolo[4,3-d]pyrimidin-7-amine]
  IC50: 100 to 1000 nM

## CN1CCC(n2cc(Nc3nc(-c4cocn4)nc4cn[nH]c34)cn2)CC1 [Example 129, N-(1-(1-methylpiperidin-4-yl)-1H-pyrazol-4-yl)-5-(oxazol-4-yl)-1H-pyrazolo[4,3-d]pyrimidin-7-amine]
  IC50: 100 to 1000 nM

## CC(=O)N1CCC(n2cc(Nc3nc(-c4cocn4)nc4cn[nH]c34)cn2)CC1 [Example 130, 1-(4-(4-((5-(oxazol-4-yl)-1H-pyrazolo[4,3-d]pyrimidin-7-yl)amino)-1H-pyrazol-1-yl)piperidin-1-yl)ethan-1-one]
  IC50: 100 to 1000 nM
